Read-outs that look alike come from different tables or passages of the source. Each block holds one compound with its values, some of them ahead of it. Starred links: 1 amine or outer side, 2 acyl side, 3 side chain; linkers in the order of their positions; H or OH if unused. Positions of bridges follow the written chain, without caps; N, C: chain ends. Non-standard residues stand in square brackets, D forms with d. Residues, ends and D or L forms follow the SMILES beside them. TATA = O=C(CC[*:1])N1CN(C(=O)CC[*:2])CN(C(=O)CC[*:3])C1; Phe(4-F) = N[C@@H](Cc1ccc(F)cc1)C(=O)O; β3hR = N=C(N)NCCC[C@H](N)CC(=O)O
Target: T1, recombinant pig FXIIa (Sus scrofa, UniProt O97507)
T1 construct: of FXII into a heavy chain (HC) and a light chain (LC); made in house; host or cells: CHO cells
T1 sequence (O97507 20-616): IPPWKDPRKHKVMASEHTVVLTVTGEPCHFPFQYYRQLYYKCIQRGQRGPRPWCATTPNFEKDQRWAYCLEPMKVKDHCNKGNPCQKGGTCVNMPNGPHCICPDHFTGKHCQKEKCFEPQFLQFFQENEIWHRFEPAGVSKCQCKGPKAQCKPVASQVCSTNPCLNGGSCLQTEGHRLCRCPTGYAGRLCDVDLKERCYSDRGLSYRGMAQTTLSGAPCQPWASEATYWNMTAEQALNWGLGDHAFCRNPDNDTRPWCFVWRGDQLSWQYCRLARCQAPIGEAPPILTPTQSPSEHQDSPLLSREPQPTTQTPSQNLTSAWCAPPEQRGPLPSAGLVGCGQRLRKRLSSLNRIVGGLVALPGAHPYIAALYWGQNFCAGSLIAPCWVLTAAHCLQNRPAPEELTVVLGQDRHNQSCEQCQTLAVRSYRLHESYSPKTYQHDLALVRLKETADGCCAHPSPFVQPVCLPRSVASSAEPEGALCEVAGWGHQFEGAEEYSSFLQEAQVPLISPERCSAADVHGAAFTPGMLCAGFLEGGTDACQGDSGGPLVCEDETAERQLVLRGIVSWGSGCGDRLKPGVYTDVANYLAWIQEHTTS
Assay: Inhibition of recombinant FXIIa (rFXIIa)
Assay type: biochemical
Text: The protein sequences for human, rabbit and pig factor XII were taken from the following database entries: human FXII: UniProtKB - P00748; rabbit FXII: NCBI RefSeq - XP_008253687.1; pig FXII: UniProtKB - O97507. The sequences are shown in the Supplementary Methods. DNA encoding the full-length proteins were ordered from Eurofins Genomics. The codons in these sequences were optimized for mammalian expression using the codon optimization tool from Integrated DNA Technologies (IDT). In addition to the FXII gene, the ordered DNA sequences encode a C-terminal GSGS-linker, a His6-tag and a stop codon, and they are flanked by NheI (GCTAGC) and a HindIII (AAGCTT) restriction sites. The entire DNA sequences are provided in the supporting materials. The DNA sequences were cloned into the pEXPR-IBA42 vector downstream of a BM40 signal sequence for secreted expression in mammalian cells. The ligated vector was transformed into DH5 alpha electrocompetent E. coli cells. Plasmid DNA from single clones was sequenced by Sanger sequencing.
1.5 mg plasmid DNA was transfected into 500 ml CHO cells (Thermo Fisher Scientific) in cell suspension culture using polyethylenimine (PEI). Cells were incubated for seven days at 37 °C, 5% CO2 under shaking conditions. The cells were removed by centrifugation and the secreted protein was purified from the supernatant using a nickel-charged immobilized metal affinity chromatography (IMAC) column (5 ml HisTrap FF Crude, GE Healthcare). The column was equilibrated with buffer containing 15 mM imidazole, 100 mM NaCl, 20 mM Tris-HCl, pH 7.4. The pH of the cell culture supernatant was adjusted to 8.0 using NaOH. The supernatant was run through the column at a flow of 5 ml per min. The column was washed with 20 column volumes of equilibration buffer at a flow of 5 ml per min. The protein was eluted with 500 mM imidazole, 100 mM NaCl, 20 mM Tris-HCl, pH 7.4 at a flow of 5 ml per min. The buffer was subsequently exchanged to 100 mM NaCl, 20 mM Tris-HCl, pH 7.4 by three iterative steps of 10-fold dilution and 10-fold concentration using a 10,000 MWCO centrifugal concentrator. The concentration was determined by measuring absorption at 280 nm (ε = 100,000). For the activation of recombinant FXII, 10 μg protein was diluted to a total volume of 10 μl 100 mM NaCl, 20 mM Tris-HCl, pH 7.4 and further diluted with 10 μl of 2-fold concentrated assay buffer (300 mM NaCl, 20 mM MgCl2, 2 mM CaCl2, 20 mM Tris-HCl, 0.02% (v/v) Triton-X100, pH 7.4). Dextran sulfate 500 kDa (DXS500) was added to a final concentration of 0.2 μg μl^−1 and incubated for 1 hour at 37 °C. 5 μg protein was analyzed by SDS-PAGE under reducing conditions.
Protease inhibition assays
The inhibitory activity of peptides was determined by measuring the residual protease activity with a fluorogenic substrate. The assay was performed in buffer containing 10 mM Tris-Cl, pH […]
1% (v/v) DMSO in a volume of 150 µl. FXIIa activity was measured with the fluorogenic substrate Boc-Gln-Gly-Arg-AMC (Bachem) at a final concentration of 50 µM. Mouse α-FXIIa (Molecular Innovations cat # MFXIIA) and human β-FXIIa (Molecular Innovations cat # HFXIIAB) were used at final concentrations of 0.4 nM. The reaction was pipetted as follows: 50 µl of bicyclic peptide in assay buffer were added to 50 µl of FXIIa in assay buffer and incubated for 10 minutes at 25°C before 50 µl of 150 µM fluorogenic substrate in assay buffer were added to measure the residual protease activity with an Infinite M200Pro fluorescence plate reader (excitation at 368 nm, emission at 467 nm; Tecan) for a period of 30 minutes with a read every minute at 25°C. The Tecan software i-control (version 1.1) was used for data analysis. Stock solutions of 1 mM bicyclic peptide were prepared by either dissolving the unpurified cyclization reaction with water or by dissolving purified and lyophilized peptide in water. The bicyclic peptides were serially diluted two-fold using assay buffer. Sigmoidal curves were fitted to the […]

remaining activity at 0.00195312 µM (Recombinant pig FXII, peptide 1.95312 nM, individual plates, read-out: Residual activity (%)): 102%
remaining activity at 0.00390625 µM (Recombinant pig FXII, peptide 3.90625 nM, individual plates, read-out: Residual activity (%)): 103%
remaining activity at 0.0078125 µM (Recombinant pig FXII, peptide 7.8125 nM, individual plates, read-out: Residual activity (%)): 95.8%
remaining activity at 0.015625 µM (Recombinant pig FXII, peptide 15.625 nM, individual plates, read-out: Residual activity (%)): 92.8%
remaining activity at 0.03125 µM (Recombinant pig FXII, peptide 31.25 nM, individual plates, read-out: Residual activity (%)): 87.6%
remaining activity at 0.0625 µM (Recombinant pig FXII, peptide 62.5 nM, individual plates, read-out: Residual activity (%)): 82.2%
remaining activity at 0.125 µM (Recombinant pig FXII, peptide 125 nM, individual plates, read-out: Residual activity (%)): 71%
remaining activity at […] (Recombinant pig FXII, peptide 250 nM, individual plates, read-out: Residual activity (%)): 54.9%
remaining activity at 0.5 µM (Recombinant pig FXII, peptide 500 nM, individual plates, read-out: Residual activity (%)): 38%
remaining activity at 1 µM (Recombinant pig FXII, peptide 1000 nM, individual plates, read-out: Residual activity (%)): 21.5%
remaining activity at 2 µM (Recombinant pig FXII, peptide 2000 nM, individual plates, read-out: Residual activity (%)): 14.6%
SMILES: CC(C)C[C@@H]1NC(=O)[C@H](CCC(N)=O)NC(=O)[C@H](CCCNC(=N)N)NC(=O)[C@@H]2CSCCC(=O)N3CN(CN(C3)C(=O)CCSC[C@H](NC(=O)[C@@H](N)CCCNC(=N)N)C(=O)N[C@@H](Cc3ccccc3)C(=O)N[C@@H](CCCNC(=N)N)C(=O)N[C@@H](CC(C)C)C(=O)N3CCC[C@H]3C(=O)N2)C(=O)CCSC[C@@H](C(=O)N[C@@H](CCCNC(=N)N)C(N)=O)NC(=O)[C@H](CCCNC(=N)N)NC1=O [FXII618]

SMILES: CC(C)C[C@@H]1NC(=O)[C@H](CCC(N)=O)NC(=O)[C@H](Cc2c[nH]cn2)NC(=O)[C@@H]2CSCCC(=O)N3CN(CN(C3)C(=O)CCSC[C@H](NC(=O)[C@@H](CO)NC(=O)[C@H](N)CCCNC(=N)N)C(=O)N[C@@H](Cc3ccc(F)cc3)C(=O)N[C@@H](CCCNC(=N)N)C(=O)N[C@@H](CC(C)C)C(=O)N3CCC[C@H]3C(=O)N2)C(=O)CCSC[C@@H](C(N)=O)NC(=O)C[C@H](CCCNC(=N)N)NC1=O [FXII900] (H-[dR][dS]C[Phe(4-F)]RLPCHQL[β3hR]C-NH2; linker 3-8-13 via TATA)
Ki: 17.4 ± 1.4 nM
remaining activity at 0.0005 µM (read-out: Residual activity (%), Recombinant pig FXII, peptide 0.5 nM, individual plates): 99.6%
remaining activity at 0.001 µM (read-out: Residual activity (%), Recombinant pig FXII, peptide 1 nM, individual plates): 93.5%
remaining activity at 0.002 µM (read-out: Residual activity (%), Recombinant pig FXII, peptide 2 nM, individual plates): 91.1%
remaining activity at 0.004 µM (read-out: Residual activity (%), Recombinant pig FXII, peptide 4 nM, individual plates): 83.3%
remaining activity at 0.008 µM (read-out: Residual activity (%), Recombinant pig FXII, peptide 8 nM, individual plates): 71.6%
remaining activity at […] (read-out: Residual activity (%), Recombinant pig FXII, peptide 16 nM, individual plates): 55.5%
remaining activity at […] (read-out: Residual activity (%), Recombinant pig FXII, peptide 32 nM, individual plates): 38.2%
remaining activity at 0.064 µM (read-out: Residual activity (%), Recombinant pig FXII, peptide 64 nM, individual plates): 23.5%
remaining activity at 0.128 µM (read-out: Residual activity (%), Recombinant pig FXII, peptide 128 nM, individual plates): 11.5%
remaining activity at 0.256 µM (read-out: Residual activity (%), Recombinant pig FXII, peptide 256 nM, individual plates): 7.16%
remaining activity at 0.512 µM (read-out: Residual activity (%), Recombinant pig FXII, peptide 512 nM, individual plates): 5.15%
